# In patent publication EP0638125B1, “AC[…] A PRODUCER OF RAPAMYCIN” (PFIZER INC., priority 1992, dated 1993):
# Assays:
# Assay type in all cases: cell-based
# [1] = tested on: mixed lymphocyte reaction (MLR); assay: mixed lymphocyte reaction (MLR), standard procedure (Dubey et al.); settings: read-out: IC₅₀ values of MLR
# Description: (§1) The IC₅₀ values (µg/ml) of MLR and cytotoxicity for rapamycin were 7 x 10⁻³ and >3.0, respectively when tested by standard procedures for MLR (D. P. Dubey et al., Manual of Clinical Laboratory Immunology, 3rd Ed., pp. 847-858, 1986) and for cytotoxicity (T. Mosmann, J., J. Immunol. Methods, 65, 55-63, 1983).
# [2] = cytotoxicity, standard procedure (Mosmann)
# Description: as §1
# [3] = tested on: Candida albicans; assay: antifungal activity, agar plate dilution method with paper disk; settings: 40 µg/disk, 8 mm diameter paper disk, agar medium for neomycin assay (Difco)
# Method: Antifungal activity was determined by an agar plate dilution method using a fungal culture, Candida albicans. The diameter of inhibition zone of rapamycin was 25 mm when tested at 40 µg/disk (8 mm diameter paper disk, Advantic) on an commercially available agar medium for neomycin assay (Difco).
smiles,measurement,setting,value
CO[C@H]1C[C@@H]2CC[C@@H](C)[C@@](O)(O2)C(=O)C(=O)N2CCCC[C@H]2C(=O)O[C@H]([C@H](C)C[C@@H]2CC[C@@H](O)[C@H](OC)C2)CC(=O)[C@H](C)/C=C(\C)[C@@H](O)[C@@H](OC)C(=O)[C@H](C)C[C@H](C)/C=C/C=C/C=C/1C [rapamycin],IC50,[1],7 ng/mL
same,CC50,[2],> 3000 ng/mL
same,zone of inhibition at 40 µg/disc,[3],25 mm
